# Laboratory results as given in PubChem BioAssay (NCI).
# Several values for one entry are separate records, joined by “and”; a condition that tells them apart may be missing. Equal values may be shown once.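 Step 1: Grow cells in 96-well plates. Step 2: Expose to compound for 48 hours at 5 concentrations. Step 3: Interpolate endpoints linearly; if unreached, use highest concentration. GI50 marks 50% less growth. Definition used: TGI = concentration required for complete inhibition of growth.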
# Columns and labels:
# Assay in all cases: inhibition of tumour cell growth, NCI panel, 48 h
# [1] = system: NCI-H226 lung
# [2] = system: 786-0 renal
# [3] = system: A498 renal
# [4] = system: NCI-H23 lung
# [5] = system: SF-268 CNS
# [6] = system: SF-295 CNS
# [7] = system: SF-539 CNS
# [8] = system: SW-620 colon
# [9] = system: OVCAR-5 ovarian
# [10] = system: UO-31 renal
Compound,GI50 [1] [µM],TGI [1] [µM],GI50 [2] [µM],TGI [2] [µM],GI50 [3] [nM],TGI [3] [µM],GI50 [4] [µM],TGI [4] [µM],GI50 [5] [µM],TGI [5],GI50 [6] [nM],TGI [6] [µM],GI50 [7] [µM],TGI [7] [µM],GI50 [8] [µM],TGI [8] [µM],GI50 [9] [µM],TGI [9] [µM],GI50 [10] [µM],TGI [10] [µM]
CCCCCCCC(=O)SCC/C=C/[C@@H]1CC(=O)NCc2cccc(n2)C2=N[C@@](C)(CS2)C(=O)N[C@@H](C(C)C)C(=O)N1,7.19,> 33.3,5.52,> 33.3,394,6.2,2.1,> 33.3,2.28,> 33.3 µM,804,8.59,2.72,> 33.3,6.33,> 33.3,0.771,> 33.3,4.54,> 33.3
COc1c2ccoc2c(/C=C/C=O)c2oc(-c3ccccc3)cc(=O)c12,4.14,20.4,26.9,> 100,7440,40.7,2.44,8.08,4.23,> 100 µM,13600,97.9,3.59,16.4,2.16,5.21,22.3,63.7,3.62,35.2
CC(C)c1ccc(C(C)C(=O)N(CC2=C(C(C)c3ccccn3)c3ccccc3C2)C(C)C)cc1 (stereo unspecified),2.68,21.7,3.14,11.5,801,5.59,3.35,53.6,4.62,> 100 µM,2300,7.65,5.62,26.7,3.18,15.8,5.33,95.9,1.53,7.29
CC1=C(C(=O)Nc2ccc(F)c(Cl)c2)C(c2ccc(Cl)cc2)NC(=O)N1 (stereo unspecified),15.5,38.6,16.5,31.7,13900,29,17.4,33.8,22.1,73.4 µM,32500,> 100,14,29.7,24.8,66,19.5,42.9,15.1,30.1
CCCCCCCCSC1=CC(=O)c2nc3ccccc3c3ccnc1c23,0.544,96.8,> 100,> 100,> 100000,> 100,58.2,> 100,24.7,> 100 µM,> 100000,> 100,> 100,> 100,> 100,> 100,> 100,> 100,49.5,> 100
O=C(NCCNc1nccc(-c2c(-c3cccc(O)c3)nc3sccn23)n1)c1ccccc1O,9.24,32.3,6.25,43.1,7670,28.2,4.51,36.8,5.4,46.6 µM,4180,26.6,7.27,24.5,5.86,48.4,13.3,65.3,5,19.8
C=C(CNCCO)[C@@H]1CC[C@]2(CO)CC[C@]3(C)[C@H](CC[C@@H]4[C@@]5(C)CCC(N)C(C)(C)[C@@H]5CC[C@]43C)[C@@H]12 (stereo partly specified),11,27.9,1.63,3.31,9550,22.6,4.66,17.6,2.61,10.3 µM,1730,3.52,1.75,3.21,1.89,3.75,5.08,18.1,13.2,26.8
Cc1ccc(-c2nnc(-c3ccc4ccccc4c3)o2)cc1,,99.9,,> 100,,> 100,,> 100,,> 100 µM,,> 100,,> 60.2,,> 100,,> 100,,> 100
O=C(Nc1ccc(I)cc1)c1cc([N+](=O)[O-])ccc1O,6.19,80.4,6.4,> 100,1450,5.17,4.07,> 100,7.03,> 100 µM,4020,39.8,11.4,80,15.5,54.5,27.9,> 100,3.77,47.6
CC(=O)OC1COC(n2c(=S)n(-c3ccc(C)cc3)c(=O)c3ccccc32)C(OC(C)=O)C1OC(C)=O (stereo unspecified),,> 100,,> 100,,> 100,,> 100,,> 100 µM,,> 100,,> 100,,> 100,,> 100,,> 100
CCOC(=O)Nc1nc2ccc(OCC)cc2s1,> 100,> 100,> 100,> 100,> 100000,> 100,> 100,> 100,84.6,> 100 µM,> 100000,> 100,20.2,> 100,4.25,> 100,> 100,> 100,> 100,> 100
NC1CCC(Nc2nc(NCc3ccc(-c4ccco4)nc3)c3ncn(C4CCCC4)c3n2)CC1 (stereo unspecified),0.126,,0.0732,1.8,31.1,0.0941,0.0264,0.0953,0.011,0.169 µM and 1.3 µM,75.1,,0.0379,0.204,0.0117,11.5,0.0324,14.1,0.17,0.747
O=C1NC2(CCCCC2)C2CCCCC(O)C12 (stereo unspecified),,> 100,,> 100,,> 100,,> 100,,> 100 µM,,> 100,,> 100,,> 100,,> 100,,> 100
CSc1ccc(/C=C2\CN(C)C/C(=C\c3ccc(SC)cc3)C2=O)cc1,,> 100,,> 100,,> 100,,34.5,,> 100 µM,,> 100,,78.9,,> 100,,> 100,,> 100
CN(C)c1ccc(-c2cc(-c3ccc(Nc4nc(Nc5ccc(Cl)cc5)nc(Nc5ccc(Cl)cc5)n4)cc3)no2)cc1,20.2,> 100,1.51,3.66,4380,22.7,6.41,35.8,5.02,21.6 µM,6360,43.8,5.18,21.2,6.28,> 100,17.3,50.2,2.69,17.7
COc1ccc2nc3cc(Cl)ccc3c(Sc3ccccc3[N+](=O)[O-])c2c1,,67.8,,> 100,,> 100,,> 100,,> 100 µM,,> 100,,> 100,,> 100,,> 100,,> 100
COc1cc2nc(C)nc(N[C@H](C)c3cc(N)cc(C(F)(F)F)c3)c2cc1O[C@H]1CCOC1,16.9,38.8,9.82,23.1,109,7.84,13.2,30.6,12.5,31.6 µM,11600,24.8,12.4,25.1,14.6,31.3,13.4,28.5,2.28,17.3
O=C(CSC(=S)N1CCCCC1)Nc1nc2c(s1)CCCC2,,> 100,,> 100,,> 100,,92.7,,> 100 µM,,79.3,,> 100,,> 100,,> 100,,> 100
CCOc1ccccc1-n1c(CN2CCN(C(=O)COc3ccc(CNCCCCCCN4C5CCCC4CC(OC(=O)Nc4cc(C)ccc4OC)C5)cc3)CC2)nc2ccccc2c1=O (stereo unspecified),1.88,3.91,1.58,3.09,2110,4.64,1.93,3.66,1.44,2.99 µM,1660,3.27,1.69,3.14,0.757,2,1.9,3.45,4.07,8.15
O=C(CN1CCN(c2cc3c(cc2F)c(=O)c(C(=O)N/N=C/c2ccccc2O)cn3C2CC2)CC1)N/N=C\c1ccccc1O,3.71,> 100,1.12,> 100,6030,> 100,0.801,> 100,0.474,> 100 µM,931,> 100,0.829,> 64,0.475,> 100,1.62,> 100,0.359,> 100
COc1cc(/C=C/c2cc(/C=C/c3ccc(O)c(OC)c3)n(C(=O)Nc3ccc(F)cc3)n2)ccc1O,2.62,9.79,1.08,6.8,2420,6.46,0.727,4.45,0.602,10 µM,2630,29.7,0.46,5.31,0.504,10.6,3.99,45,0.587,6.27
CC[C@@]12CCCN3CC[C@]4(c5cccc(OC)c5N(C(C)=O)[C@@H]4CC1)[C@H]32,,> 100,,> 100,,> 100,,> 100,,> 100 µM,,> 100,,> 100,,> 100,,> 100,,> 100
CCc1ccc2c(c1)C(=O)c1c-2n(CCCBr)c(=O)c2cc([N+](=O)[O-])ccc12,27.7,> 50,23.4,> 50,> 50000,> 50,> 50,> 50,15.9,> 50 µM,36500,> 50,28.4,> 50,> 50,> 50,> 50,> 50,> 50,> 50
O=C(CCl)N1c2ccccc2Oc2ccc3ccccc3c21,1.63,3.26,2.05,3.56,2440,6.97,1.31,3.08,1.52,2.94 µM,2410,5.92,1.59,3.1,0.373,1.48,1.81,3.59,1.17,2.53
Cc1nc2c(nc1C)C(=O)c1ccccc1C2=O,,13.3,,47.1,,8.98,,2.59,,46.3 µM,,4.38,,11.2,,10.1,,9.62,,36.2
O=C(O)c1cc(C(=O)O)cc(N2C(=O)c3ccccc3C2=O)c1,,> 100,,> 100,,> 100,,> 100,,> 100 µM,,> 100,,> 100,,> 100,,> 100,,> 100
CSc1ccccc1C#C/C=C\C#Cc1ccccc1N1CCCC1=O,> 11.4,> 50,> 22,> 50,> 50000,> 50,> 12.7,> 50,> 10.2,> 50 µM,> 50000,> 50,> 11.4,> 50,,> 17.6,> 24.2,> 50,,> 50
O=C1/C(=C/c2ccc([N+](=O)[O-])cc2)COc2ccc(O)c(O)c21,11,45.8,1.35,3.59,1710,3.91,1.77,3.74,1.51,3.15 µM,2210,5.17,1.7,3.33,1.31,3.07,1.81,3.74,0.696,2.23
